Patent publication US12357636B2 (Urovant Sciences GmbH, priority 2018, dated 2025)
Read-outs that look alike come from different tables or passages of the source. Each block holds one compound with its values, some of them ahead of it.

Tests used:
[1] = drug interaction of vibegron and metoprolol succinate (CYP2D6 substrate); assay type: in vivo, human
patients with OAB = experiment: Phase 2b study: cardiovascular safety, orthostatic AEs, blood pressure and heart rate changes (Table 17); assay type: in vivo, human; conditions: tolterodine 4 mg
Description: None led to discontinuation. The overall incidence of orthostatic symptoms was low.
Small differences in the percent of subjects exceeding categorical heart rate and blood pressure thresholds for vibegron were similar to those in the tolterodine arm.

[2] = tested on: patients with overactive bladder
Description: A placebo group was included in the main study, and a group that received tolterodine monotherapy was included in the main study and in the extension.

[3] = tested on: men and women with overactive bladder; experiment: Phase 3 study vibegron 75 mg vs placebo and tolterodine, 12 weeks, OAB: efficacy (Tables 21-25); assay type: in vivo, human; conditions: for Micturitions: Week 12 CFB Mean / Urgency Episodes: Week 12 CFB Mean / UUI: Week 12 CFB Mean: descriptive statistics; for UUI: Week 12 CFB Mean: daily UUI episodes
Procedure: Enrollment of patients included individuals with OAB Wet (those with UUI, the involuntary loss of urine accompanied by urgency) and OAB Dry (those without UUI). A total of 1,518 patients were randomized across 215 study sites into one of three groups for a 12-week treatment period.
The study consisted of a Screening Period (1 to 5 weeks), a single-blind Run-in Period (2 weeks), a randomized double-blind Treatment Period (12 weeks), and a Follow-up Period (4 weeks).
Tolterodine ER 4 mg was the active control. […] Between the Baseline and Week 12 Visits, patients had study assessments at Week 4 and Week 8.
For the analysis of the co-primary endpoints (change from baseline in average number of daily micturitions at Week 12 and change from baseline in average number of daily urge urinary incontinence episodes at Week 12, and placebo adjustment of each), a mixed model for repeated measure (MMRM) with restricted maximum likelihood estimation was used. This model corrects for dropout and accounts for the fact that measurements taken on the same patient over time tend to be correlated by using all available information on patients within the same covariate set to derive an estimate of the treatment effect for a dropout-free population. The analysis model for each efficacy endpoint includes terms for treatment, visit, OAB Type (Wet vs Dry), Sex (Female vs Male), Region (US vs Rest of World), baseline score, and interaction of visit by treatment.
Primary inferences were drawn from treatment differences for the changes from baseline derived from the MMRM models at Week 12. As part of secondary objectives, the treatment differences for each post baseline visit were also derived using the same MMRM model.
An unstructured covariance matrix was used to model the correlation among repeated measurements. The Kenward-Roger adjustment was used with restricted (or residual) maximum likelihood (REML) to make statistical inference. If the unstructured covariance model fails to converge with the default Newton-Raphson algorithm, the Fisher scoring algorithm or other appropriate methods can be used to provide initial values of the covariance parameters. In the rare event that none of the above methods yield convergence, a structured covariance would be used to model the correlation among repeated measurements.
The change from baseline efficacy endpoints was analyzed using the same MMRM model described for co-primary endpoints.
Analysis of the efficacy endpoints of proportion of patients with at least 75% reduction in the average number of daily UUI episodes at Week 12 and proportion of patients with 50% reduction in the average number of daily urgency episodes at Week 12 was analyzed using the Cochran-Mantel-Haenszel risk difference estimate. Missing Week 12 data was analyzed using multiple imputation. The estimated difference in the proportion of responders and 95% confidence interval for the difference was calculated using the Cochran-Mantel-Haenszel risk difference estimate stratified by OAB Type (Wet vs Dry) and Sex (Female vs Male), with weights proposed by Greenland and Robins.
The same statistical methods that were used to analyze the co-primary and secondary efficacy endpoints were used for the exploratory analyses. Exploratory responder analyses were analyzed using the same Cochran-Mantel-Haenszel model as described above for secondary endpoints.

men and women with OAB = experiment: Phase 2b study in OAB: efficacy (voiding diary); assay type: in vivo, human; conditions: tolterodine ER 4 mg QD
Description: Part 2 was designed to continue to assess the safety and efficacy of concomitant dosing. […] Subjects in both Part 1 and Part 2 had the option of enrolling in a 1-year extension. Participants were required to keep a voiding diary, recording the occurrence of each strong urge, total incontinence, and urge incontinence episode. Efficacy data for Part 1 and Part 2 are summarized herein.
The total number of urgency incontinence episodes must have exceeded the total number of stress incontinence episodes for all subjects.
Conversely, a dose dependent effect on urge incontinence or total incontinence was not observed.

[4] = tested on: men and women with overactive bladder; experiment: Phase 3 study vibegron 75 mg: post-void residual urine volume (Tables 26-28); assay type: in vivo, human
Description: The risk of acute urinary retention or morbidities related to an increase in Post-Void Residual (PVR) is a concern with antimuscarinic therapy that promotes smooth muscle relaxation by inhibiting acetylcholine-induced smooth muscle contraction. If, during contraction, the bladder cannot generate enough pressure to overcome the outlet resistance in the urethra, either because of poor detrusor contractility or profound obstruction (most commonly from BPH), acute urinary retention or incomplete emptying of the bladder may result.
The volume of urine that remains in the bladder after voiding (PVR) is an objective measurement that may serve as a proxy for impaired ability to void.
PVR were performed via ultrasound at the visits indicated in the Schedule of Activities.
In addition, the data on the Post Void Residual Urine Volume (PVR) in all males and males with a medical history of BPH is shown in Tables 26 and 27, respectively.

[5] = mass balance study with [14C]vibegron; conditions: 2 and 4 hr
[6] = metoprolol 100 mg, vibegron 75 mg
[7] = counts based on 3 consecutive post-baseline visits
[8] = Week 12, co-primary endpoint, once-daily vibegron 75 mg or tolterodine
[9] = Week 12, key secondary endpoint, once-daily vibegron 75 mg or tolterodine
[10] = Males with medical history of BPH
[11] = all males, vibegron 75 mg or tolterodine ER 4 mg QD

AUC0-∞ ratio of GLS mean, metoprolol + vibegron/metoprolol alone [1, 6]: 1.40
Cmax ratio of GLS mean, metoprolol + vibegron/metoprolol alone [1, 6]: 1.49
geometric mean Cmax and AUC in the presence of vibegron ([1]; metoprolol succinate 100 mg, vibegron 75 mg QD): increased slightly
SMILES: COCCc1ccc(OCC(O)CNC(C)C)cc1 (stereo not shown) [Metoprolol, metoprolol succinate]

SMILES: Cc1ccc(O)c([C@H](CCN(C(C)C)C(C)C)c2ccccc2)c1 [Tolterodine ER, tolterodine]
DBP Change from Baseline [≥] 5 mm Hg, n/N (%) (patients with OAB; [7]): 30/242 (12.4) %
DBP Change from Baseline [≥] 10 mm Hg, n/N (%) (patients with OAB; [7]): 13/242 (5.4) %
DBP Change from Baseline ≥15 mm Hg, n/N (%) (patients with OAB; [7]): 3/242 (1.2) %
HR Change from Baseline [≥] 5 mm Hg, n/N (%) (patients with OAB; [7]): 29/242 (12.0) %
HR Change from Baseline [≥] 10 bpm, n/N (%) (patients with OAB; [7]): 11/242 (4.5) %
HR Change from Baseline ≥15 bpm, n/N (%) (patients with OAB; [7]): 4/242 (1.7) %
SBP Change from Baseline [≥] 5 mm Hg, n/N (%) (patients with OAB; [7]): 41/242 (16.9) %
SBP Change from Baseline [≥] 10 mm Hg, n/N (%) (patients with OAB; [7]): 19/242 (7.9) %
SBP Change from Baseline ≥15 mm Hg, n/N (%) (patients with OAB; [7]): 7/242 (2.9) %
DBP Change from Baseline, Mean (95% CI) Max (patients with OAB; mean maximum from week 1 to 8): 5.19 (4.26, 6.13) mm Hg
HR Change from Baseline, Mean (95% CI) Maximum (patients with OAB; mean maximum from week 1 to 8): 5.66 (4.69, 6.63) bpm
SBP Change from Baseline, Mean (95% CI) Maximum (patients with OAB; mean maximum from week 1 to 8): 7.29 (6.01, 8.57) mm Hg
DBP Change from Baseline, Mean (95% CI) (week 1) (patients with OAB; week 1): −0.12 (−1.10, 0.86) mm Hg
HR Change from Baseline, Mean (95% CI) (week 1) (patients with OAB; week 1): 0.68 (−0.31, 1.67) bpm
SBP Change from Baseline, Mean (95% CI) (week 1) (patients with OAB; week 1): 0.04 (−1.36, 1.43) mm Hg
Accidental overdose ([2]; ER 4 mg QD): 6 (2.3) n (%)
Alanine aminotransferase increased ([2]; ER 4 mg QD): 1 (0.4) n (%)
Arthralgia ([2]; ER 4 mg QD): 3 (1.2) n (%)
Aspartate aminotransferase increased ([2]; ER 4 mg QD): 0 (0.0) n (%)
Constipation ([2]; ER 4 mg QD): 5 (1.9) n (%)
Diarrhea ([2]; ER 4 mg QD): 9 (3.5) n (%)
Discontinuation due to AE ([2]; ER 4 mg QD): 4 (1.6) n (%)
Discontinuation due to drug-related AE ([2]; ER 4 mg QD): 0 n (%)
Dizziness ([2]; ER 4 mg QD): 5 (1.9) n (%)
Drug-related AE ([2]; ER 4 mg QD): 42 (16.3) n (%)
Dry eye ([2]; ER 4 mg QD): 10 (3.9) n (%)
Dry mouth ([2]; ER 4 mg QD): 22 (8.6) n (%)
Dysuria ([2]; ER 4 mg QD): 3 (1.2) n (%)
Fatigue ([2]; ER 4 mg QD): 6 (2.3) n (%)
Headache ([2]; ER 4 mg QD): 9 (3.5) n (%)
Nasopharyngitis ([2]; ER 4 mg QD): 4 (1.6) n (%)
Nausea ([2]; ER 4 mg QD): 6 (2.3) n (%)
Osteoarthritis ([2]; ER 4 mg QD): 0 (0.0) n (%)
Pain in extremity ([2]; ER 4 mg QD): 1 (0.4) n (%)
Serious AE ([2]; ER 4 mg QD): 3 (1.2) n (%)
Sinusitis ([2]; ER 4 mg QD): 1 (0.4) n (%)
Urinary tract infection ([2]; ER 4 mg QD): 12 (4.7) n (%)
≥1 AE ([2]; ER 4 mg QD): 116 (45.1) n (%)
Serious AE ([2]; ER 4 mg QD, listed as tolterodine): 3 n (%)
frequency of injuries ([2]; Phase 2, tolterodine arm vs vibegron): 2.1%
Micturitions: Week 12 CFB Mean ([3]; Males with BPH): −1.25
Urgency Episodes: Week 12 CFB Mean ([3]; Males with BPH): −3.29
UUI: Week 12 CFB Mean ([3]; Males with BPH): −2.15
Micturitions: Week 12 CFB Mean ([3]; Males without BPH): −1.29
Urgency Episodes: Week 12 CFB Mean ([3]; Males without BPH): −2.32
UUI: Week 12 CFB Mean ([3]; Males without BPH): −2.05
Micturitions: Week 12 CFB Mean ([3]; Overall for Males): −1.28
Micturitions: Week 12 CFB Mean ([3]; Overall): −1.78
Urgency Episodes: Week 12 CFB Mean ([3]; Overall): −2.57
UUI: Week 12 CFB Mean ([3]; Overall): −1.75
Micturitions, Week 12 LS Mean Change from Baseline (Placebo-Adjusted) [3, 8]: −0.3
UUI Episodes, Week 12 LS Mean Change from Baseline (Placebo-Adjusted) [3, 8]: −0.4
OAB-q Coping Score, Week 12 LS Mean Change from Baseline (Placebo-Adjusted) [3, 9]: 3.1
Total Incontinence Episodes, Week 12 LS Mean Change from Baseline (Placebo-Adjusted) [3, 9]: −0.5
Urgency Episodes, Week 12 LS Mean Change from Baseline (Placebo-Adjusted) [3, 9]: −0.4
Volume Voided, Week 12 LS Mean Change from Baseline (Placebo-Adjusted) [3, 9]: 13.3 mL
Micturitions difference from placebo in LS means, Week 8 (men and women with OAB): −0.54
Urgency Episodes difference from placebo in LS means, Week 8 (men and women with OAB): −0.94
Total Incontinence Episodes difference from placebo in LS means, Week 8 (men and women with OAB; OAB Wet): −0.34
Urgency Incontinence Episodes difference from placebo in LS means, Week 8 (men and women with OAB; OAB Wet): −0.46
PVR Categories at Week 12: <100 mL [4, 10]: 71.4%
PVR Categories at Week 12: ≥100 mL to <200 mL [4, 10]: 28.6%
PVR Categories at Week 12: ≥200 mL to <350 mL [4, 10]: 0%
PVR Categories at Week 12: ≥350 mL [4, 10]: 0%
PVR Mean Change from Baseline at Week 12 (SD) [4, 10]: 3.7 (50.64) mL
PVR Mean Change from Baseline at Week 12 (SD) [4, 11]: 10.2 (44.24) mL
PVR category <100 mL at Week 12 [4, 11]: 85.2%
PVR category ≥100 mL to <200 mL at Week 12 [4, 11]: 11.5%
PVR category ≥200 mL to <350 mL at Week 12 [4, 11]: 3.3%
PVR category ≥350 mL at Week 12 [4, 11]: 0
PVR Categories at Week 12: <100 mL ([4]; study population as a whole): 86.5%
PVR Categories at Week 12: ≥100 mL to <200 mL ([4]; study population as a whole): 5.8%
PVR Categories at Week 12: ≥200 mL to <350 mL ([4]; study population as a whole): 0.7%
PVR Categories at Week 12: ≥350 mL ([4]; study population as a whole): 0%
PVR Mean Change from Baseline at Week 12 (SD) ([4]; study population as a whole): 3.1 (40.93) mL

share of total circulating drug-related material in human plasma [5]: 12-14%
SMILES: O=C(O)C1OC(OC(c2ccccc2)C2CCC(Cc3ccc(NC(=O)C4CCc5nccc(=O)n54)cc3)N2)C(O)C(O)C1O (stereo not shown) [M7]
